Like-named read-outs stand apart in the source and are kept apart here. Marks after values point to notes of the source that are not given here.
How the values were obtained:
[1] = tested on: hiPSC-derived neurons co-cultured with human primary astrocytes in 3D; assay: Ca2+ transient oscillation assay (FDSS), 3D spheroids; assay type: cell-based; conditions: 60 min
How it was run: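 Fura-2 fluorescence was read twice for 20 min each: a baseline 10 min after 0.04% DMSO, and again 60 min after compound addition at nominal final concentration. The 3D co-cultures (1:1 hiPSC neurons from a donor and human astrocytes, 8000 each) matured 5 weeks in BrainPhys medium after a 1-week differentiation.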

[2] = ref PharmaPendium, cited from earlier work
[3] = tested on: hiPSC-derived neurons co-cultured with human primary astrocytes in 2D; assay: Ca2+ transient oscillation assay (FDSS), 2D co-culture; assay type: cell-based; conditions: for activation at 3.7 µM / activation at 11.11 µM / activation at 33.33 µM / activation at 100 µM / activation at 0.37 µM / activation at 1.11 µM / activation at 3.33 µM / activation at 10 µM: Homo sapiens, 1 h, 60 min
How it was run: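 Cultures were 10,000 CW50065 hiPSC excitatory neurons plus 2500 primary human astrocytes per well. Recordings used Cal-520 dye in HBSS/HEPES/glucose at 37 °C, with a 470/540 nm read at 2 Hz. Oscillations were stabilized with 0.04% DMSO, read for 20 min, then read again 60 min after compound addition (final DMSO 0.1%).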

[4] = Table 1, peak plasma concentration in men, free therapeutic Cmax
[5] = Table 2, highest plasma concentration in humans after the therapeutic dose
[6] = read-out: Area under the curve - 2D Mean
[7] = read-out: Peak amplitude - 2D Mean
[8] = read-out: Peak-to-peak interval - 2D Mean

In the case of `NS(=O)(=O)c1cc2c(cc1Cl)NC(C1CC3C=CC1C3)NS2(=O)=O` (stereo not shown) [Cyclothiazide], the “Area under the curve - 3D Mean” value ([1]; 3.7 µM) is reported as 135.8 % change from baseline, the “Peak Number—3D Mean” value ([1]; 3.7 µM) is reported as 0.0 % change from baseline and the “Peak amplitude - 3D Mean” value ([1]; 3.7 µM) is reported as 126.0 % change from baseline. For the same compound, the “Peak width - 3D Mean” value ([1]; 3.7 µM) was 0.7 % change from baseline, the “Peak-to-peak interval - 3D Mean” value ([1]; 3.7 µM) was 6.7 % change from baseline and the “Area under the curve - 3D Mean” value ([1]; 11.11 µM) was 187.3 % change from baseline. The “Peak Number—3D Mean” value ([1]; 11.11 µM) was 21.5 % change from baseline, the “Peak amplitude - 3D Mean” value ([1]; 11.11 µM) was 139.0 % change from baseline and the “Peak width - 3D Mean” value ([1]; 11.11 µM) was 23.6 % change from baseline. For the same compound, the “Peak-to-peak interval - 3D Mean” value ([1]; 11.11 µM) was −14.5 % change from baseline, the “Area under the curve - 3D Mean” value ([1]; 33.33 µM) was 245.1 % change from baseline and the “Peak Number—3D Mean” value ([1]; 33.33 µM) was 63.6 * % change from baseline. The “Peak amplitude - 3D Mean” value ([1]; 33.33 µM) was 113.7 % change from baseline, the “Peak width - 3D Mean” value ([1]; 33.33 µM) was 64.7 % change from baseline and the “Peak-to-peak interval - 3D Mean” value ([1]; 33.33 µM) was −30.0 % change from baseline. The “Area under the curve - 3D Mean” value ([1]; 100 µM) was 204.6 % change from baseline, the “Peak Number—3D Mean” value ([1]; 100 µM) was 102.9 ** % change from baseline and the “Peak amplitude - 3D Mean” value ([1]; 100 µM) was 83.6 % change from baseline. For the same compound, the “Peak width - 3D Mean” value ([1]; 100 µM) was 80.0 % change from baseline, the “Peak-to-peak interval - 3D Mean” value ([1]; 100 µM) was −49.3 % change from baseline and the “Free Cmax” value [2, 4] was 30000 nM. For the same compound, the “Free Cmax” value [2, 5] was 30000 nM, the “effect on peak number / Ca2+ neuronal oscillations, in words” value ([3]; 2D format) was “significantly increased peak number” and the activation at 3.7 µM [3, 6] was 48%. The activation at 3.7 µM ([3]; read-out: Peak Number—2D Mean) was 2.7%, the activation at 3.7 µM [3, 7] was 12.3% and the activation at 3.7 µM ([3]; read-out: Peak width - 2D Mean) was 50.8%. The activation at 3.7 µM [3, 8] was 9.2%, the activation at 11.11 µM [3, 6] was 18.7% and the activation at 11.11 µM ([3]; read-out: Peak Number—2D Mean) was 178%. The activation at 11.11 µM [3, 7] was -0.5%, the activation at 11.11 µM ([3]; read-out: Peak width - 2D Mean) was 24.5% and the activation at 11.11 µM [3, 8] was -53.3%. For the same compound, the activation at 33.33 µM [3, 6] was -9.3%, the activation at 33.33 µM ([3]; read-out: Peak Number—2D Mean) was -25.2% and the activation at 33.33 µM [3, 7] was -24%. For the same compound, the activation at 33.33 µM ([3]; read-out: Peak width - 2D Mean) was 208%, the activation at 33.33 µM [3, 8] was 0.3% and the activation at 100 µM [3, 6] was -53.8%. The activation at 100 µM ([3]; read-out: Peak Number—2D Mean) was -82%, the activation at 100 µM [3, 7] was -72.8% and the activation at 100 µM ([3]; read-out: Peak width - 2D Mean) was -17.3%. It also gave an activation at 100 µM [3, 8] of -70.3%.

For `CCN(CC)CCCC(C)Nc1c2ccc(Cl)cc2nc2ccc(OC)cc12` (stereo not shown) [Quinacrine, quinacrine], the “Area under the curve - 3D Mean” value ([1]; 0.37 µM) was 123.5 % change from baseline, the “Peak Number—3D Mean” value ([1]; 0.37 µM) was 3.2 % change from baseline and the “Peak amplitude - 3D Mean” value ([1]; 0.37 µM) was 113.4 % change from baseline. The “Peak width - 3D Mean” value ([1]; 0.37 µM) was −1.8 % change from baseline, the “Peak-to-peak interval - 3D Mean” value ([1]; 0.37 µM) was −0.7 % change from baseline and the “Area under the curve - 3D Mean” value ([1]; 1.11 µM) was 149.1 % change from baseline. For the same compound, the “Peak Number—3D Mean” value ([1]; 1.11 µM) was 0.4 % change from baseline, the “Peak amplitude - 3D Mean” value ([1]; 1.11 µM) was 128.3 % change from baseline and the “Peak width - 3D Mean” value ([1]; 1.11 µM) was 4.2 % change from baseline. For the same compound, the “Peak-to-peak interval - 3D Mean” value ([1]; 1.11 µM) was 6.2 % change from baseline, the “Area under the curve - 3D Mean” value ([1]; 3.33 µM) was 139.1 % change from baseline and the “Peak Number—3D Mean” value ([1]; 3.33 µM) was 14.1 % change from baseline. The “Peak amplitude - 3D Mean” value ([1]; 3.33 µM) was 108.9 % change from baseline, the “Peak width - 3D Mean” value ([1]; 3.33 µM) was 10.6 % change from baseline and the “Peak-to-peak interval - 3D Mean” value ([1]; 3.33 µM) was −5.5 % change from baseline. The “Area under the curve - 3D Mean” value ([1]; 10 µM) was 128.2 % change from baseline, the “Peak Number—3D Mean” value ([1]; 10 µM) was 12.5 % change from baseline and the “Peak amplitude - 3D Mean” value ([1]; 10 µM) was 108.3 % change from baseline. For the same compound, the “Peak width - 3D Mean” value ([1]; 10 µM) was 9.5 % change from baseline, the “Peak-to-peak interval - 3D Mean” value ([1]; 10 µM) was −9.8 % change from baseline and the “Free Cmax” value [2, 4] was 50 nM. The “Free Cmax” value [2, 5] was 50 nM, the activation at 0.37 µM [3, 6] was 5.3% and the activation at 0.37 µM ([3]; read-out: Peak Number—2D Mean) was -2.7%. It also gave an activation at 0.37 µM [3, 7] of 1.8%, an activation at 0.37 µM ([3]; read-out: Peak width - 2D Mean) of 2.8% and an activation at 0.37 µM [3, 8] of 7%. It also gave an activation at 1.11 µM [3, 6] of 11.2%, an activation at 1.11 µM ([3]; read-out: Peak Number—2D Mean) of -2.8% and an activation at 1.11 µM [3, 7] of 1.2%. It also gave an activation at 1.11 µM ([3]; read-out: Peak width - 2D Mean) of 10.7%, an activation at 1.11 µM [3, 8] of -4% and an activation at 3.33 µM [3, 6] of -13.8%. The activation at 3.33 µM ([3]; read-out: Peak Number—2D Mean) was -11%, the activation at 3.33 µM [3, 7] was -7.8% and the activation at 3.33 µM ([3]; read-out: Peak width - 2D Mean) was -12.8%. It also gave an activation at 3.33 µM [3, 8] of 40.2%, an activation at 10 µM [3, 6] of -84.7% and an activation at 10 µM ([3]; read-out: Peak Number—2D Mean) of -92.2%. The activation at 10 µM [3, 7] was -78%, the activation at 10 µM ([3]; read-out: Peak width - 2D Mean) was -84.3% and the activation at 10 µM [3, 8] was -18.2%.

For `CC(=O)Oc1ccccc1C(=O)O` [Aspirin], the “Area under the curve - 3D Mean” value ([1]; 3.7 µM) was 139.0 % change from baseline, the “Peak Number—3D Mean” value ([1]; 3.7 µM) was −0.4 % change from baseline and the “Peak amplitude - 3D Mean” value ([1]; 3.7 µM) was 129.1 % change from baseline. The “Peak width - 3D Mean” value ([1]; 3.7 µM) was 4.2 % change from baseline, the “Peak-to-peak interval - 3D Mean” value ([1]; 3.7 µM) was 10.9 % change from baseline and the “Area under the curve - 3D Mean” value ([1]; 11.11 µM) was 139.2 % change from baseline. The “Peak Number—3D Mean” value ([1]; 11.11 µM) was 0.0 % change from baseline, the “Peak amplitude - 3D Mean” value ([1]; 11.11 µM) was 138.1 % change from baseline and the “Peak width - 3D Mean” value ([1]; 11.11 µM) was 0.3 % change from baseline. The “Peak-to-peak interval - 3D Mean” value ([1]; 11.11 µM) was −2.2 % change from baseline, the “Area under the curve - 3D Mean” value ([1]; 33.33 µM) was 147.8 % change from baseline and the “Peak Number—3D Mean” value ([1]; 33.33 µM) was 10.0 % change from baseline. The “Peak amplitude - 3D Mean” value ([1]; 33.33 µM) was 135.8 % change from baseline, the “Peak width - 3D Mean” value ([1]; 33.33 µM) was 5.0 % change from baseline and the “Peak-to-peak interval - 3D Mean” value ([1]; 33.33 µM) was −1.7 % change from baseline. For the same compound, the “Area under the curve - 3D Mean” value ([1]; 100 µM) was 133.2 % change from baseline, the “Peak Number—3D Mean” value ([1]; 100 µM) was −8.2 % change from baseline and the “Peak amplitude - 3D Mean” value ([1]; 100 µM) was 123.5 % change from baseline. The “Peak width - 3D Mean” value ([1]; 100 µM) was 4.7 % change from baseline, the “Peak-to-peak interval - 3D Mean” value ([1]; 100 µM) was 6.7 % change from baseline and the “Free Cmax” value [2, 4] was 40 to 160 nM. The “Free Cmax” value [2, 5] was 40 to 160 nM, the activation at 3.7 µM [3, 6] was 48.5% and the activation at 3.7 µM ([3]; read-out: Peak Number—2D Mean) was -10.2%. The activation at 3.7 µM [3, 7] was 13.1%, the activation at 3.7 µM ([3]; read-out: Peak width - 2D Mean) was 43.6% and the activation at 3.7 µM [3, 8] was 15.5%. For the same compound, the activation at 11.11 µM [3, 6] was 25.7%, the activation at 11.11 µM ([3]; read-out: Peak Number—2D Mean) was 17.6% and the activation at 11.11 µM [3, 7] was 4.2%. For the same compound, the activation at 11.11 µM ([3]; read-out: Peak width - 2D Mean) was 25.9%, the activation at 11.11 µM [3, 8] was 1.8% and the activation at 33.33 µM [3, 6] was 37.6%. It also gave an activation at 33.33 µM ([3]; read-out: Peak Number—2D Mean) of 10.1%, an activation at 33.33 µM [3, 7] of 6.2% and an activation at 33.33 µM ([3]; read-out: Peak width - 2D Mean) of 38.3%. The activation at 33.33 µM [3, 8] was -0.5%, the activation at 100 µM [3, 6] was 30% and the activation at 100 µM ([3]; read-out: Peak Number—2D Mean) was 27.9%. For the same compound, the activation at 100 µM [3, 7] was 3.9%, the activation at 100 µM ([3]; read-out: Peak width - 2D Mean) was 32.1% and the activation at 100 µM [3, 8] was -17%.

— PMC10046961, “High-Throughput Screening Assay for Detecting Drug-Induced Changes in Synchronized Neuronal Oscillations and Potential Seizure Risk Based on Ca^2+ Fluorescence Measurements in Human Induced Pluripotent Stem Cell (hiPSC)-Derived Neuronal 2D and 3D Cultures” (Cells, 2023)
